Consider 3 molecules from article PMC2742692 (Proteins, 2009).

The target in this assay is CalO2 (Micromonospora echinospora, UniProt Q8KND6). The experiment in a line: CalO2 ligand binding by UV-vis difference spectra. Details: species or system M. echinospora.

Broadly, the Kd is the concentration at which binding is half-saturated. As for `CC(=O)NCCSC(=O)c1cccc(I)c1` [compound 13], the Kd came to 120 µM. As to `CC(=O)NCCSC(=O)c1ccccc1O` [compound 14], the Kd worked out at 405 ± 100 µM.

As to `CC(=O)NCCSC(=O)c1c(C)cc(O)cc1O` [compound 11], binding was characterised by a dissociation constant (Kd) of 170 ± 30 µM.
